Reference: paper PMC7064328 (Environmental Health Perspectives, 2020)

Tested on: maternal liver
Assay: Maternal liver histopathology (H&E)
Format: in vivo, mouse (CD-1)
Settings: for CA, any severity: % / CA, any severity: N / CA, marked: % / CA, marked: N / CA, minimal to mild: % / CA, minimal to mild: N / CA, moderate: % / CA, moderate: N / Focal regions of classic necrosis: % / Focal regions of classic necrosis: N / Increase in cell death: % / Increase in cell death: N / Increase in mitotic figures: % / Increase in mitotic figures: N / Vacuolation, any severity: % / Vacuolation, any severity: N / Vacuolation, mild: % / Vacuolation, mild: N / Vacuolation, minimal: % / Vacuolation, minimal: N / Vacuolation, moderate: % / Vacuolation, moderate: N: maternal liver
Description: From each uterus, first, viable embryos and their matched placentas were collected in succession within a horn and immediately snap frozen ( n=2–5 per litter ), and subsequent embryos were collected for growth measurements ( n=2–11 per litter ). Additional placentas were collected and placed in 4% paraformaldehyde (PFA) for histological analysis (Block 2 only). Amniotic fluid was collected by needle aspiration from litters euthanized at E11.5 and snap frozen in liquid nitrogen. Embryo livers were collected from litters euthanized at E17.5 and snap frozen in liquid nitrogen. Dam livers were weighed, a portion of the left lateral lobe was placed in 4% PFA for histology, and another portion of the same lobe was snap frozen in liquid nitrogen. A third liver section was obtained from Block 2 dams and fixed in McDowell and Trump’s fixative for electron microscopy (EM). Gross lesions were collected when observed and placed in 4% PFA for histology. Dam kidneys were removed, a cross section was prepared from the right kidney, a longitudinal section was prepared from the left kidney, and both sections were fixed in 4% PFA for histological analysis.
Dam livers, kidneys, and placentas were trimmed and embedded by the NIEHS Mouse Embryo Phenotyping Core. Tissues collected at necropsy were fixed in 4% PFA for 72 h and paraffin embedded, and 5-μm sections were prepared and stained with hematoxylin and eosin (H&E). Pathology was evaluated and a pathology review conducted by S.A.E. Diplomate American College of Veterinary Pathologists (DACVP). Pathology reviews were conducted as an informed approach analysis [e.g., nonblinded analysis; see Sills et al. ([2019])]. Select tissue slides were scanned using the AT2 Scanner (Aperio). Images were then captured for publication using the ImageScope software; version 12.3.0.5056 (Aperio). Serum and urine obtained from dams in Block 2 were analyzed using the AU480 clinical chemistry analyzer (Beckman Coulter Inc.). Reagents and calibration standards used to measure alkaline phosphatase (ALP), alanine aminotransferase (ALT), aspartate aminotransferase (AST), blood urea nitrogen (BUN), serum creatinine, urine creatinine, glucose (Glu), total protein (TP), triglyceride (Trig), high-density lipoprotein (HDL), cholesterol (Chol), and albumin (ALB) were purchased from Beckman Coulter Inc. Reagents for sorbitol dehydrogenase (SDH), total bile acid (TBA), and micro-TP were purchased from Sekisui Diagnostics. The reagent used to measure low-density lipoprotein (LDL) was purchased form Diazyme Laboratories.

O=C(O)C(F)(F)C(F)(F)C(F)(F)C(F)(F)C(F)(F)C(F)(F)C(F)(F)F [PFOA, Perfluorooctanoic acid]
Incidence of livers with adverse outcomes including cytoplasmic alteration (all dose groups, E11.5 and E17.5): 100% | CA, any severity: % (E11.5, 1 mg/kg/d): 100% | CA, any severity: N (E11.5, 1 mg/kg/d): 5 | CA, marked: % (E11.5, 1 mg/kg/d): 0% | CA, marked: N (E11.5, 1 mg/kg/d): 0 | CA, minimal to mild: % (E11.5, 1 mg/kg/d): 100% | CA, minimal to mild: N (E11.5, 1 mg/kg/d): 5 | CA, moderate: % (E11.5, 1 mg/kg/d): 0% | CA, moderate: N (E11.5, 1 mg/kg/d): 0 | Focal regions of classic necrosis: % (E11.5, 1 mg/kg/d): 0% | Focal regions of classic necrosis: N (E11.5, 1 mg/kg/d): 0 | Increase in cell death: % (E11.5, 1 mg/kg/d): 20% | Increase in cell death: N (E11.5, 1 mg/kg/d): 1 | Increase in mitotic figures: % (E11.5, 1 mg/kg/d): 40% | Increase in mitotic figures: N (E11.5, 1 mg/kg/d): 2 | Vacuolation, any severity: % (E11.5, 1 mg/kg/d): 0% | Vacuolation, any severity: N (E11.5, 1 mg/kg/d): 0 | Vacuolation, mild: % (E11.5, 1 mg/kg/d): 0% | Vacuolation, mild: N (E11.5, 1 mg/kg/d): 0 | Vacuolation, minimal: % (E11.5, 1 mg/kg/d): 0% | Vacuolation, minimal: N (E11.5, 1 mg/kg/d): 0 | Vacuolation, moderate: % (E11.5, 1 mg/kg/d): 0% | Vacuolation, moderate: N (E11.5, 1 mg/kg/d): 0 | CA, any severity: % (E11.5, 5 mg/kg/d): 100% | CA, any severity: N (E11.5, 5 mg/kg/d): 5 | CA, marked: % (E11.5, 5 mg/kg/d): 100% | CA, marked: N (E11.5, 5 mg/kg/d): 5 | CA, minimal to mild: % (E11.5, 5 mg/kg/d): 0% | CA, minimal to mild: N (E11.5, 5 mg/kg/d): 0 | CA, moderate: % (E11.5, 5 mg/kg/d): 0% | CA, moderate: N (E11.5, 5 mg/kg/d): 0 | Focal regions of classic necrosis: % (E11.5, 5 mg/kg/d): 40% | Focal regions of classic necrosis: N (E11.5, 5 mg/kg/d): 2 | Increase in cell death: % (E11.5, 5 mg/kg/d): 60% | Increase in cell death: N (E11.5, 5 mg/kg/d): 3 | Increase in mitotic figures: % (E11.5, 5 mg/kg/d): 100% | Increase in mitotic figures: N (E11.5, 5 mg/kg/d): 5 | Vacuolation, any severity: % (E11.5, 5 mg/kg/d): 100% | Vacuolation, any severity: N (E11.5, 5 mg/kg/d): 5 | Vacuolation, mild: % (E11.5, 5 mg/kg/d): 100% | Vacuolation, mild: N (E11.5, 5 mg/kg/d): 5 | Vacuolation, minimal: % (E11.5, 5 mg/kg/d): 0% | Vacuolation, minimal: N (E11.5, 5 mg/kg/d): 0 | Vacuolation, moderate: % (E11.5, 5 mg/kg/d): 0% | Vacuolation, moderate: N (E11.5, 5 mg/kg/d): 0 | CA, any severity: % (E17.5, 1 mg/kg/d): 100% | CA, any severity: N (E17.5, 1 mg/kg/d): 5 | CA, marked: % (E17.5, 1 mg/kg/d): 0% | CA, marked: N (E17.5, 1 mg/kg/d): 0 | CA, minimal to mild: % (E17.5, 1 mg/kg/d): 0% | CA, minimal to mild: N (E17.5, 1 mg/kg/d): 0 | CA, moderate: % (E17.5, 1 mg/kg/d): 100% | CA, moderate: N (E17.5, 1 mg/kg/d): 5 | Focal regions of classic necrosis: % (E17.5, 1 mg/kg/d): 0% | Focal regions of classic necrosis: N (E17.5, 1 mg/kg/d): 0 | Increase in cell death: % (E17.5, 1 mg/kg/d): 100% | Increase in cell death: N (E17.5, 1 mg/kg/d): 5 | Increase in mitotic figures: % (E17.5, 1 mg/kg/d): 0% | Increase in mitotic figures: N (E17.5, 1 mg/kg/d): 0 | Vacuolation, any severity: % (E17.5, 1 mg/kg/d): 0% | Vacuolation, any severity: N (E17.5, 1 mg/kg/d): 0 | Vacuolation, mild: % (E17.5, 1 mg/kg/d): 0% | Vacuolation, mild: N (E17.5, 1 mg/kg/d): 0 | Vacuolation, minimal: % (E17.5, 1 mg/kg/d): 0% | Vacuolation, minimal: N (E17.5, 1 mg/kg/d): 0 | Vacuolation, moderate: % (E17.5, 1 mg/kg/d): 0% | Vacuolation, moderate: N (E17.5, 1 mg/kg/d): 0 | CA, any severity: % (E17.5, 5 mg/kg/d): 100% | CA, any severity: N (E17.5, 5 mg/kg/d): 6 | CA, marked: % (E17.5, 5 mg/kg/d): 100% | CA, marked: N (E17.5, 5 mg/kg/d): 6 | CA, minimal to mild: % (E17.5, 5 mg/kg/d): 0% | CA, minimal to mild: N (E17.5, 5 mg/kg/d): 0 | CA, moderate: % (E17.5, 5 mg/kg/d): 0% | CA, moderate: N (E17.5, 5 mg/kg/d): 0 | Focal regions of classic necrosis: % (E17.5, 5 mg/kg/d): 0% | Focal regions of classic necrosis: N (E17.5, 5 mg/kg/d): 0 | Increase in cell death: % (E17.5, 5 mg/kg/d): 100% | Increase in cell death: N (E17.5, 5 mg/kg/d): 6 | Increase in mitotic figures: % (E17.5, 5 mg/kg/d): 0% | Increase in mitotic figures: N (E17.5, 5 mg/kg/d): 0 | Vacuolation, any severity: % (E17.5, 5 mg/kg/d): 100% | Vacuolation, any severity: N (E17.5, 5 mg/kg/d): 6 | Vacuolation, mild: % (E17.5, 5 mg/kg/d): 0% | Vacuolation, mild: N (E17.5, 5 mg/kg/d): 0 | Vacuolation, minimal: % (E17.5, 5 mg/kg/d): 0% | Vacuolation, minimal: N (E17.5, 5 mg/kg/d): 0 | Vacuolation, moderate: % (E17.5, 5 mg/kg/d): 100% | Vacuolation, moderate: N (E17.5, 5 mg/kg/d): 6
